Measurements taken from PubChem BioAssay AID328 (DTP/NCI, 2004).
Several values for one entry are separate records, joined by “and”; a condition that tells them apart may be missing. Identical values can stand only once. Toxic doses and inconclusive results are not listed.

System: BDF1 mice, P388 leukemia ip, median survival T/C
Test: NCI In Vivo Anticancer Drug Screen. Data for tumor model P388 Leukemia (intraperitoneal) in B6D2F1 (BDF1) mice
Details: endpoint: median survival time, higher = longer survival
In short: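 Vehicle-dosed animals serve as the reference; survival of compound-dosed, tumour-implanted mice is divided by it.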

Compound: COc1cc(NS(C)(=O)=O)ccc1Nc1c2ccccc2nc2ccccc12
- T/C (dose: 0.25 mg/kg/injection, schedule: Q01DX009 (ip), vehicle: other): 154 % of control
- T/C (dose: 0.25 mg/kg/injection, schedule: Q01DX009 (ip), vehicle: saline): 150 % of control
- T/C (dose: 0.5 mg/kg/injection, schedule: Q01DX009 (ip), vehicle: other): 161 % of control and 175 % of control
- T/C (dose: 0.57 mg/kg/injection, schedule: Q01DX009 (ip), vehicle: Klucel (hydroxypropylcellulose) (HPC)): 210 % of control
- T/C (dose: 0.8 mg/kg/injection, schedule: Q01DX005 (ip), vehicle: other): 182 % of control
- T/C (dose: 0.8 mg/kg/injection, schedule: Q01DX005 (iv), vehicle: other): 104 % of control and 109 % of control
- T/C (dose: 0.8 mg/kg/injection, schedule: Q04DX003 (iv), vehicle: other): 108 % of control
- T/C (dose: 0.85 mg/kg/injection, schedule: Q01DX009 (ip), vehicle: Klucel (hydroxypropylcellulose) (HPC)): 195 % of control
- T/C (dose: 1.0 mg/kg/injection, schedule: Q01DX009 (ip), vehicle: other): 175 % of control and 195 % of control
- T/C (dose: 1.3 mg/kg/injection, schedule: Q01DX009 (ip), vehicle: Klucel (hydroxypropylcellulose) (HPC)): 173 % of control
- T/C (dose: 1.56 mg/kg/injection, schedule: Q01DX009 (ip), vehicle: Klucel (hydroxypropylcellulose) (HPC)): 166 % of control
- T/C (dose: 1.6 mg/kg/injection, schedule: Q01DX005 (ip), vehicle: other): 202 % of control
- T/C (dose: 1.6 mg/kg/injection, schedule: Q01DX005 (iv), vehicle: other): 115 % of control and 120 % of control
- T/C (dose: 1.6 mg/kg/injection, schedule: Q04DX003 (iv), vehicle: other): 107 % of control
- T/C (dose: 2.0 mg/kg/injection, schedule: Q01DX009 (ip), vehicle: Klucel (hydroxypropylcellulose) (HPC)): 169 % of control
- T/C (dose: 2.0 mg/kg/injection, schedule: Q01DX009 (ip), vehicle: other): 193 % of control and 216 % of control
- T/C (dose: 3.3 mg/kg/injection, schedule: Q01DX005 (ip), vehicle: other): 220 % of control
- T/C (dose: 3.3 mg/kg/injection, schedule: Q04DX003 (iv), vehicle: other): 122 % of control
- T/C (dose: 3.6 mg/kg/injection, schedule: Q04DX003 (ip), vehicle: clinical formulation): 192 % of control
- T/C (dose: 3.6 mg/kg/injection, schedule: Q04DX003 (ip), vehicle: other): 215 % of control
- T/C (dose: 4.12 mg/kg/injection, schedule: Q01DX009 (ip), vehicle: Klucel (hydroxypropylcellulose) (HPC)): 227 % of control and 204 % of control
- T/C (dose: 5.4 mg/kg/injection, schedule: Q04DX003 (ip), vehicle: clinical formulation): 210 % of control
- T/C (dose: 6.0 mg/kg/injection, schedule: Q04DX003 (ip), vehicle: clinical formulation): 211 % of control
- T/C (dose: 6.0 mg/kg/injection, schedule: Q04DX003 (ip), vehicle: other): 169 % of control
- T/C (dose: 6.25 mg/kg/injection, schedule: Q01DX009 (ip), vehicle: Klucel (hydroxypropylcellulose) (HPC)): 236 % of control and 259 % of control and 272 % of control
- T/C (dose: 6.5 mg/kg/injection, schedule: Q04DX003 (iv), vehicle: other): 116 % of control
- T/C (dose: 6.6 mg/kg/injection, schedule: Q04DX003 (ip), vehicle: other): 236 % of control
- T/C (dose: 6.6 mg/kg/injection, schedule: Q08DX002 (ip), vehicle: other): 191 % of control
- T/C (dose: 6.6 mg/kg/injection, schedule: Q08DX002 (iv), vehicle: other): 118 % of control
- T/C (dose: 7.0 mg/kg/injection, schedule: Q04DX003 (ip), vehicle: lactic acid): 225 % of control and 263 % of control and 272 % of control
- T/C (dose: 7.0 mg/kg/injection, schedule: Q04DX003 (ip), vehicle: saline with Tween-80): 240 % of control
- T/C (dose: 9.0 mg/kg/injection, schedule: Q04DX003 (ip), vehicle: clinical formulation): 215 % of control
- T/C (dose: 9.37 mg/kg/injection, schedule: Q01DX009 (ip), vehicle: Klucel (hydroxypropylcellulose) (HPC)): 268 % of control and 104 % of control
- T/C (dose: 10.0 mg/kg/injection, schedule: Q04DX003 (ip), vehicle: clinical formulation): 248 % of control
- T/C (dose: 10.0 mg/kg/injection, schedule: Q04DX003 (ip), vehicle: other): 225 % of control and 272 % of control
- T/C (dose: 10.0 mg/kg/injection, schedule: Q08DX002 (ip), vehicle: other): 193 % of control
- T/C (dose: 11.0 mg/kg/injection, schedule: Q04DX003 (ip), vehicle: lactic acid): 291 % of control and 354 % of control and 541 % of control
- T/C (dose: 11.0 mg/kg/injection, schedule: Q04DX003 (ip), vehicle: saline with Tween-80): 295 % of control
- T/C (dose: 12.5 mg/kg/injection, schedule: Q01DX009 (ip), vehicle: Klucel (hydroxypropylcellulose) (HPC)): 260 % of control
- T/C (dose: 15.0 mg/kg/injection, schedule: Q04DX003 (ip), vehicle: other): 111 % of control
- T/C (dose: 15.0 mg/kg/injection, schedule: Q04DX003 (iv), vehicle: other): 157 % of control
- T/C (dose: 15.0 mg/kg/injection, schedule: Q08DX002 (ip), vehicle: other): 245 % of control
- T/C (dose: 16.0 mg/kg/injection, schedule: Q04DX003 (ip), vehicle: lactic acid): 190 % of control
- T/C (dose: 16.0 mg/kg/injection, schedule: Q04DX003 (ip), vehicle: saline with Tween-80): 377 % of control
- T/C (dose: 16.7 mg/kg/injection, schedule: Q04DX003 (ip), vehicle: clinical formulation): 118 % of control
- T/C (dose: 22.6 mg/kg/injection, schedule: Q04DX003 (iv), vehicle: other): 170 % of control
- T/C (dose: 22.6 mg/kg/injection, schedule: Q08DX002 (iv), vehicle: other): 190 % of control
- T/C (dose: 26.0 mg/kg/injection, schedule: Q04DX003 (iv), vehicle: other): 203 % of control
- T/C (dose: 34.0 mg/kg/injection, schedule: Q04DX003 (iv), vehicle: other): 200 % of control
- T/C (dose: 34.0 mg/kg/injection, schedule: Q08DX002 (iv), vehicle: other): 200 % of control
